pKd: −log10 of the molar value.
Experiments:
[1] = molecular target: T1, P-glycoprotein 1 (P-gp, hMDR1) (Homo sapiens, UniProt P08183); experiment: vanadate-sensitive ATPase activation in P-gp membrane vesicles (PREDEASY kit); supported by Rh123 competition in MDR cells
T1 construct: gene ABCB1

[2] = molecular target: T1, P-glycoprotein 1 (P-gp, hMDR1); experiment: biochemical

T1 sequence (P08183 whole entry): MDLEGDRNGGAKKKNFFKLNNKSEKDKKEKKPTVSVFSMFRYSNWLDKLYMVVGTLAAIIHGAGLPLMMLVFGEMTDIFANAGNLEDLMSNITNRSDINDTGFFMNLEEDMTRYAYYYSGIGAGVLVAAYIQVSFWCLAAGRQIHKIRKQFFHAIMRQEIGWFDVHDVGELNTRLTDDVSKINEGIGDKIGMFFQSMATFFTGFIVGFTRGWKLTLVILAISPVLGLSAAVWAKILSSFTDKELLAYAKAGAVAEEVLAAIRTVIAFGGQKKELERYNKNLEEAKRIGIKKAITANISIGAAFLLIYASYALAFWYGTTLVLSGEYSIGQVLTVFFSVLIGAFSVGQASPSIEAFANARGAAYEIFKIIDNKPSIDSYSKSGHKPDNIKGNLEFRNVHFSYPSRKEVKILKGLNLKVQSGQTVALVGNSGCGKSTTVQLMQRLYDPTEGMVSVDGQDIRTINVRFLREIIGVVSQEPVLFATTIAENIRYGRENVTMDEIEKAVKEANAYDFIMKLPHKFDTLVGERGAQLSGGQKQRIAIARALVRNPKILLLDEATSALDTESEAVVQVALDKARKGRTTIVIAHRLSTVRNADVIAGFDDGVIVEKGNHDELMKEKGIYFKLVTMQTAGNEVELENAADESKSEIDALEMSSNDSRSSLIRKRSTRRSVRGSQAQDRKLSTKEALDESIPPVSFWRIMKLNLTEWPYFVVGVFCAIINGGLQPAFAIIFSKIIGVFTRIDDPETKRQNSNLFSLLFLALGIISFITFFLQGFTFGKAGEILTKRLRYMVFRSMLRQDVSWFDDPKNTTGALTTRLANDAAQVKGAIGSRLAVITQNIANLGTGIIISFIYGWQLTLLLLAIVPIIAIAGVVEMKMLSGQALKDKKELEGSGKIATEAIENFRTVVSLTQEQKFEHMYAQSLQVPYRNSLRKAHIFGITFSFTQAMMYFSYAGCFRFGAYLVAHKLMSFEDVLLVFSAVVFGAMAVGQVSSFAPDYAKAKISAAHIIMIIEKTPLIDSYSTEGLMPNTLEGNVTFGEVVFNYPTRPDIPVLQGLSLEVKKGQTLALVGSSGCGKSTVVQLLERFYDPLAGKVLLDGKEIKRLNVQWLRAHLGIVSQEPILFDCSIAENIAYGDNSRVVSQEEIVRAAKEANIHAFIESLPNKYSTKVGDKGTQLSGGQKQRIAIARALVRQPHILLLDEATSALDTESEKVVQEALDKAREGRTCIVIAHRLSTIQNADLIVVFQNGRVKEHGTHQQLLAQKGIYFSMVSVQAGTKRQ

SMILES	pKd [1]	pKd [2]
CC(C)Cn1cnc2c(N)nc3ccccc3c21 [IMQ, Imiquimod]	5.12	
CCOCc1nc2c(N)nc3ccccc3c2n1CC(C)(C)O [RSQ, Resiquimod]		4.61

— paper PMC8705394, “Acquired Drug Resistance Enhances Imidazoquinoline Efflux by P-Glycoprotein” (Pharmaceuticals, 2021)
